Entries after “also recorded” stand apart in the source; their conditions may differ.
How the values were obtained:
[1] = tested on: estrogen responsive elements (ERE-luc or AP-1-luc); parameters: method as in PMID 20209442; conditions: 10 μM of MEHP; cited from earlier work
[2] = tested on: estrogen receptor; parameters: method as in PMID 26272952; conditions: computational network model; cited from earlier work
[3] = tested on: YES and YAS Saccharomyces cerevisiae yeasts; assay: Yeast cytotoxicity (growth factor, absorbance at 690 nm)
[4] = tested on: MCF-7 cells; parameters: method as in PMID 12913283; conditions: cited from earlier work
[5] = tested on: fetal testis; conditions: cited from earlier work
[6] = tested on: budding yeast; parameters: method as in PMID 29783050; conditions: cited from earlier work
[7] = tested on: male rats; parameters: method as in PMID 17654256; conditions: cited from earlier work
[8] = tested on: human ERα; parameters: method as in PMID 15840436; conditions: 10.0 μM of MEHP in the presence of 10.0 pM E2; cited from earlier work

In the case of `CCCCC(CC)COC(=O)c1ccccc1C(=O)O` (stereo not drawn) [MEHP, mono-(2-ethylhexyl) phthalate], the estrogenic activity [1] is given as “estrogenic effect”, the anti-estrogenic activity [2] is given as “no anti-estrogenic activity” and the “cytotoxicity (yeast cell viability)” value ([3]; 100 nM to 1.00 mM) is given as “did not induce yeast toxicity; also recorded: no effect”. For the same compound, the “cytotoxicity (yeast cell viability)” value ([3]; 10.0 mM, growth factor below 0.5) was “significant cytotoxicity”, the anti-estrogenic activity [4] was “decrease of natural estrogenic activity” and the testosterone production [5] was “did not affect”. The “concentration at which cytotoxicity was induced” value [6] was 1600 µM, the “weights of ventral prostate, seminal vesicles and levator ani/bulbocavernosus (LABC)” value [7] was “decreased weights” and the anti-estrogenic activity [8] was “no anti-estrogenic activity”.

Reference: paper PMC6515293 (Molecules, 2019)
